Entries after “also recorded” stand apart in the source; their conditions may differ. Where two headings read alike, the source gives them in different places.
Columns and labels:
LEC [1] = assay: LEC cell proliferation assay; type: cell-based, human; conditions: Homo sapiens, 48 h, 10 μM in 0.1% DMSO, 48 hours; read-out: LEC proliferation
In short: (§1)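 HUVEC and LEC in EBM with 20% FBS, hydrocortisone and dibutyryl-cAMP were treated with compound at 10 μM in 0.1% DMSO for 48 hours. Viable cells read by fluorescence, in five replicates.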

[2] = test system: VEGFA-induced dermal neovascularization; assay: Matrigel plug implantation assay (VEGFA-induced angiogenesis and lymphatic vessel enlargement); type: in vivo, mouse; conditions: mice, 3 mg/kg/day orally, 6 days
Method: The mouse studies were conducted under protocols approved by the Veterinary Office of the Canton of Zurich, Switzerland (permit #123/2005). Nine week-old female wild-type FVB mice (Charles River) were used for the experiments (n=6 per group). Prior to Matrigel implantation, the mice were anesthetized by intraperitoneal injection of 200 μl of Dormitor (20 μg/ml medetomidine; Pfizer) and Narketan 10 (8 mg/ml ketamine; Vétoquinol). The left hip of the animals were shaved and subsequently Matrigel was implanted by intradermal injection of 100 μl of unpolymerized growth factor-reduced Matrigel (BD Biosciences) containing 0.5 mg/ml recombinant human VEGFA (#0081109; National Cancer Institute, USA). The mice were treated orally with either 200 μl PEG-400 (Fluka; pH adjusted to 5.2; control group) or with 200 μl PEG-400 containing […] naphthyridine (3 mg/kg/day). Another control group of mice received Matrigel without VEGFA and was treated with 200 μl PEG-400. The treatment was given once daily for six days. Weight and appearance of animals was monitored daily. On the 7th day, the Matrigel implants were removed from the euthanized mice for immunocytochemical examination. The Matrigel implants were frozen in Tissue-Tek O.C.T. compound (Sakura Finetek), sectioned, and processed as described previously (Kajiya et al., 2005). In brief, 6-μm frozen sections were fixed in −20° C. acetone for two minutes and in cold 80% methanol for five minutes, followed by incubation with antibodies against the lymphatic-specific marker LYVE1 (1:1,000; Millipore) and against the pan-endothelial marker […] (anti-mouse; 1:50; BD Biosciences). Corresponding secondary antibodies were labeled with Alexa 488 or Alexa 594 (Invitrogen). Nuclei were counterstained with 20 μg/ml Hoechst 33342 (Invitrogen). Sections were examined under an Axioskop 2 mot plus microscope and digital images were taken using an AxioCam MRc camera (Carl Zeiss). Three pictures each were taken of vascularized areas around the Matrigel implants (maximal distance from the implant: 500 μm). The vessel density, average vessel size and the average tissue area occupied by vessels were determined in CD31/LYVE1 stained sections using the IPLab software (BD Biosciences) as described (Kajiya et al., 2005).
The adenosine A1 receptor antagonist naphthyridine was identified as a novel inhibitor of lymphatic and blood vessel formation in Xenopus tadpoles and in vitro cellular assays, where it acted anti-mitogenic and impaired endothelial tube formation. […] It can be concluded that the ability of naphthyridine to inhibit lymph and blood vessel angiogenesis is conserved between Xenopus and mammals.

HUVEC [3] = assay: HUVEC tube formation assay; type: cell-based, human; conditions: Homo sapiens, HUVEC, 1 μM in 0.1% DMSO
In short: (§2)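 HUVEC and LEC in EBM with 20% FBS, hydrocortisone and dibutyryl-cAMP, up to eleven passages, treated overnight at 37 °C with compound at 1 μM in 0.1% DMSO, then fixed in 4% paraformaldehyde. Read-out: total tube length (μm) per area over three hotspot images per well, triplicate wells.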

LEC [4] = assay: cells; type: cell-based, human; conditions: Homo sapiens; for activity at 1 µM: 1 μM in 0.1% DMSO
In short: as §2

Xenopus embryos = test system: Xenopus embryos
In short: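 Stage 31 (37 hpf) Xenopus embryos, five per well, exposed to 20 µM compound in 1% DMSO at 23 °C for 4 days. Edema, lethality and other external phenotypes were scored daily by two investigators at stages 39, 41, 45 and 47.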

HUVEC [5] = assay: HUVEC cell proliferation assay; type: cell-based, human; conditions: Homo sapiens, HUVEC, 48 h, 10 μM in 0.1% DMSO, 48 hours; read-out: HUVEC proliferation
In short: as §1

Compound: Oc1cc(-c2ccccc2)nc2nc(Cl)ccc12 [7-Chloro-4-hydroxy-2-phenyl-1,8-naphthyridine]
- activity at 10 µM (LEC [1]): 42 to 48%
- density of lymphatic vessels [2]: unchanged
- number of VEGFA-induced blood vessels [2]: 36.49±1.49
- tissue area covered by lymphatic vessels surrounding VEGFA containing Matrigels [2]: 0.89±0.18%
- lymphatic vessel enlargement ([2]; 3 mg/kg/day): potently inhibited; also recorded: reduction
- tissue area covered by blood vessels ([2]; 3 mg/kg/day): reduction; also recorded: reduced
- activity at 1 µM (HUVEC [3]; overnight, read-out: HUVEC tube formation): 50 to 85%
- activity at 1 µM (HUVEC [3]; read-out: HUVEC tube formation (tube length)): 50 to 85%
- activity at 1 µM (LEC [4]; overnight, read-out: LEC tube formation): 50 to 85%
- activity at 1 µM (LEC [4]; read-out: LEC tube formation (tube length)): 50 to 85%
- IC50 (LEC [4]; doses 0.2-2 μM, data not shown, read-out: IC50 of LEC tube formation): 1.3 µM
- Lethality (NF) (Xenopus embryos; compounds causing edema, 20 μM, 1% DMSO, treatment from stage 31, scored to stage 47): 39 NF
- Type of edema Pericordial (Xenopus embryos; embryonic stage): 39 embryonic stages according to Nieuwkoop and Faber (NF)
- Lethality (Xenopus embryos; embryonic stage, — = no stage of lethality given): 39 embryonic stages according to Nieuwkoop and Faber (NF)
- activity at 10 µM (HUVEC [5]): 42 to 48%

— patent publication US9945845B2, “Methods of screening using amphibians” (priority 2009, dated 2018)
